How the values were obtained:
5-Lipoxygenase = molecular target: T1, 5-Lipoxygenase (Rattus norvegicus, UniProt P12527); test: ARBL whole cell 5-lipoxygenase assay (LTB4 formation in RBL-1 cells); assay type: cell-based; settings: A23187 (5 μM) stimulated, LTB4 formation by RIA, read-out: % Inhibition at 10 μM Conc, ARBL
T1 construct: host or cells: RBL-1 (rat basophilic leukemia)
T1 sequence (P12527 1-673): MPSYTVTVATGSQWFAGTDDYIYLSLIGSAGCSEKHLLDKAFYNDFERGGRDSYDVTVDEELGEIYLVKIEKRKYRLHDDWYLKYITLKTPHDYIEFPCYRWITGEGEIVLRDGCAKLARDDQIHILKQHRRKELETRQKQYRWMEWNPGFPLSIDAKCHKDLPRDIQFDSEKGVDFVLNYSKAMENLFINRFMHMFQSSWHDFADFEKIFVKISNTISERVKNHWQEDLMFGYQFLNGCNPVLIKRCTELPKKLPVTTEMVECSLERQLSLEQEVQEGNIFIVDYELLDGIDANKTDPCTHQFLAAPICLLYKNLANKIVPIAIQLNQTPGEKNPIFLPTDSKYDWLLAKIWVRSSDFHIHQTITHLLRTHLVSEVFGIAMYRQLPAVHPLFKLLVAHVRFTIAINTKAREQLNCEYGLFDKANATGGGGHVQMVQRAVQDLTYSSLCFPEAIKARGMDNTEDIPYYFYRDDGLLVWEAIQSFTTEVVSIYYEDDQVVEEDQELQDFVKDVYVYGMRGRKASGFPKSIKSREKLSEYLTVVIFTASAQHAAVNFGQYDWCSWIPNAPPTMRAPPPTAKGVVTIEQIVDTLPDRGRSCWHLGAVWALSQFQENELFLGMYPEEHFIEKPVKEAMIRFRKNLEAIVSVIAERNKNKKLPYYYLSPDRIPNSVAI
Description: (§1) A description of each procedure follows. ARBL/ARBC Whole Cell 5-Lipoxygenase and Cyclooxygenase Assays The rat basophilic leukemia cell line (RBL-1) was obtained from the American Type Culture Collection (Rockville, Md.). Radioimmunoassay (RIA) kits of LTB4 and PGF2α were obtained from Amersham (Arlington Heights, Ill.) and Seragen (Boston, Mass.), respectively. All tissue culture media were obtained from GIBCO (Grand Island, N.Y.). RBL-1 cells are grown in suspension culture in Eagle's minimum essential medium supplemented with 12% fetal bovine serum at 37° C. in an incubator supplied with air-5% carbon dioxide. Cells are harvested by centrifugation. They are washed with cold phosphate buffered saline pH 7.4 (PBS; NaCl, 7.1 g; NaHPO, 1.15 g; KHPO, 0.2 g; and KCl, 0.2 g/l). Cells are finally suspended in PBS containing 1.0 mM calcium at a density of […] cells/ml. Cells are incubated with and without test agent (in DMSO) (1% DMSO is without effect on arachidonic acid metabolism) for ten minutes at room temperature. Calcium ionophore A23187 (5 μM) is added and cells are incubated for seven minutes at 37° C. The reaction is stopped by chilling the tubes on ice for ten minutes. Cells are separated by centrifugation and the supernatant is stored at […]. Aliquots (100 μL) are analyzed for LTB4 and PGF2α using radioimmunoassay kits as provided by the supplier. Biochemical data obtained from this whole cell assay may be shown as IC50 s which are calculated as the amount of test compound causing 50% inhibition of LTB4 or PGF2α formation. The following Table exemplifies the data for the present invention.

Cyclooxygenase = test: ARBC whole cell cyclooxygenase assay (PGF2α formation in RBL-1 cells); assay type: cell-based, rat; settings: A23187 (5 μM) stimulated, PGF2α formation by RIA
Description: as §1

Row | inhibition at 10 µM (5-Lipoxygenase) | Compound | % Inhibition at 10 μM Conc, ARBC (Cyclooxygenase)
1 | 91% | CC(C)(C)c1nc(C=C2SC(=S)NC2=O)nc(C(C)(C)C)c1O [Example 6, 5-[[4,6-Bis-(1,1-dimethylethyl)-5-hydroxy-2-pyrimidinyl]methylene]-2-thioxo-4-thiazolidinone] | 81%
2 | 32% | CC(C)(C)c1nc(C=C2SC(=N)NC2=O)nc(C(C)(C)C)c1O [Example 7, 5-[[4,6-Bis-(1,1-dimethylethyl]-5-hydroxy-2-pyrimidinyl]methylene]-2-imino-4-thiazolidinone] | 56%

Continued, molecule first:

Row | Compound | inhibition at 10 µM (5-Lipoxygenase) | % Inhibition at 10 μM Conc, ARBC (Cyclooxygenase)
3 | CC(C)(C)c1nc(C=C2SC(=O)NC2=O)nc(C(C)(C)C)c1O [Example 8] | 60% | 68%
4 | CON1CCC(=Cc2nc(C(C)(C)C)c(O)c(C(C)(C)C)n2)C1=O [Example 15, 3-[[4,6-Bis-(1,1-dimethylethyl)-5-hydroxy-2-pyrimidinyl]methylene]-N-methoxy-pyrrolidin-2-one] | 46% | 88%
5 | CC(C)(C)c1nc(C=C2CCOC2=O)nc(C(C)(C)C)c1O [Example 16] | 100% | 93%

Reference: patent publication US5270319A, “5-hydroxy-2-pyrimidinylmethylene derivatives useful as antiinflammatory agents” (Warner-Lambert Company, priority 1992, dated 1993)
